Legend:
Experiment in all cases: microbe, parasite or virus in culture
Design in all cases: Broth microdilution MIC in cation-adjusted MHB-Ca2+, growth inhibition per EUCAST reading
[1] = tested on: T1, Staphylococcus aureus PB0112; conditions: PB0112, 16 h
T1 construct: PB0112
Procedure: (§1) MICs were measured in cation-adjusted Mueller-Hinton broth (MHB) supplemented with 50 μg/mL CaCl2 (MHB-Ca^2+) via broth microdilution in 96-well plates with an inoculum of ∼5 × 10^5 CFU per mL. Antibiotic test concentrations ranged from 0.0625 μg/mL to 32 μg/mL by 2-fold dilutions. Plates were incubated at 37°C for 16 h without shaking, and results were interpreted in accordance with European Committee on Antimicrobial Susceptibility Testing reading guidelines ([72]). S. aureus ATCC 29213 was used as a quality-control strain. TCA cycle defects have been shown previously to cause antibiotic tolerance in laboratory strains of methicillin-sensitive S. aureus (MSSA) ([13], [16]). […] To test this hypothesis, we complemented three of the clinical isolates harboring loss-of-function citZ mutations with either wild-type citZ (pOS1-citZ) or empty vector (pOS1) and then measured bacterial survival through time after exposure to ceftaroline, daptomycin, vancomycin, or the combination of daptomycin plus ceftaroline (Fig. 3). These antibiotics were chosen for their clinical relevance in the treatment of severe MRSA infection.

[2] = tested on: T2, Staphylococcus aureus PB0113; conditions: PB0113, 16 h
T2 construct: PB0113
Procedure: as §1

[3] = tested on: T3, Staphylococcus aureus PB0203; conditions: PB0203, 16 h
T3 construct: PB0203
Procedure: as §1

[4] = tested on: T4, Staphylococcus aureus PB0803; conditions: PB0803, 16 h
T4 construct: PB0803
Procedure: as §1

[5] = tested on: T5, Staphylococcus aureus PB0805; conditions: PB0805, 16 h
T5 construct: PB0805
Procedure: as §1

[6] = tested on: T6, Staphylococcus aureus PB0903; conditions: PB0903, 16 h
T6 construct: PB0903
Procedure: as §1

[7] = tested on: T7, Staphylococcus aureus PB0905; conditions: PB0905, 16 h
T7 construct: PB0905
Procedure: as §1

[8] = tested on: T8, Staphylococcus aureus PB1103; conditions: PB1103, 16 h
T8 construct: PB1103
Procedure: as §1

[9] = tested on: T9, Staphylococcus aureus PB1407; conditions: PB1407, 16 h
T9 construct: PB1407
Procedure: as §1

[10] = tested on: T10, Staphylococcus aureus PB1408; conditions: PB1408, 16 h
T10 construct: PB1408
Procedure: as §1

[11] = tested on: T11, Staphylococcus aureus PB1509; conditions: PB1509, 16 h
T11 construct: PB1509
Procedure: as §1

| Structure (SMILES) | MIC ([1]; replicate 1) [µg/mL] | MIC ([1]; replicate 2) [µg/mL] | MIC ([2]; replicate 1) [µg/mL] | MIC ([2]; replicate 2) [µg/mL] | MIC ([3]; replicate 1) [µg/mL] | MIC ([3]; replicate 2) [µg/mL] | MIC ([4]; replicate 1) [µg/mL] | MIC ([4]; replicate 2) [µg/mL] | MIC ([5]; replicate 1) [µg/mL] | MIC ([5]; replicate 2) [µg/mL] | MIC ([6]; replicate 1) [µg/mL] | MIC ([6]; replicate 2) [µg/mL] | MIC ([7]; replicate 1) [µg/mL] | MIC ([7]; replicate 2) [µg/mL] | MIC ([8]; replicate 1) [µg/mL] | MIC ([8]; replicate 2) [µg/mL] | MIC ([9]; replicate 1) [µg/mL] | MIC ([9]; replicate 2) [µg/mL] | MIC ([10]; replicate 1) [µg/mL] | MIC ([10]; replicate 2) [µg/mL] | other results |
| --- | --- | --- | --- | --- | --- | --- | --- | --- | --- | --- | --- | --- | --- | --- | --- | --- | --- | --- | --- | --- | --- |
| CCO/N=C(\C(=O)N[C@@H]1C(=O)N2C(C(=O)[O-])=C(Sc3nc(-c4cc[n+](C)cc4)cs3)CS[C@H]12)c1nsc(N)n1 [Ceftaroline] | 0.5 | 0.5 | 0.5 | 0.5 | 0.5 | 0.5 | 0.5 | 0.5 | 0.5 | 0.5 | 0.5 | 0.5 | 0.5 | 0.5 | 0.5 | 0.5 | 0.5 | 0.5 | 0.5 | 0.5 | MIC ([11]; replicate 1): 0.5 µg/mL; MIC ([11]; replicate 2): 0.5 µg/mL |
| CCCCCCCCCC(=O)N[C@@H](Cc1c[nH]c2ccccc12)C(=O)N[C@H](CC(N)=O)C(=O)N[C@@H](CC(=O)O)C(=O)N[C@@H]1C(=O)NCC(=O)N[C@@H](CCCN)C(=O)N[C@@H](CC(=O)O)C(=O)N[C@H](C)C(=O)N[C@@H](CC(=O)O)C(=O)NCC(=O)N[C@H](CO)C(=O)N[C@@H]([C@H](C)CC(=O)O)C(=O)N[C@@H](CC(=O)c2ccccc2N)C(=O)O[C@@H]1C [Daptomycin] | 1 | 1 | 1 | 1 | 1 | 1 | 2 | 2 | 1 | 1 | 2 | 2 | 2 | 2 | 1 | 1 | 2 | 2 | 2 | 2 | MIC ([11]; replicate 1): 2 µg/mL; MIC ([11]; replicate 2): 2 µg/mL |
| CC(=O)NC[C@H]1CN(c2ccc(N3CCOCC3)c(F)c2)C(=O)O1 [Linezolid] | 4 | 4 | 4 | 4 | 4 | 4 | 4 | 4 | 4 | 4 | 4 | 4 | 4 | 4 | 4 | 4 | 4 | 4 | 4 | 4 | MIC ([11]; replicate 1): 4 µg/mL; MIC ([11]; replicate 2): 4 µg/mL |
| CN[C@H](CC(C)C)C(=O)N[C@H]1C(=O)N[C@@H](CC(N)=O)C(=O)N[C@H]2C(=O)N[C@H]3C(=O)N[C@H](C(=O)N[C@H](C(=O)O)c4cc(O)cc(O)c4-c4cc3ccc4O)[C@H](O)c3ccc(c(Cl)c3)Oc3cc2cc(c3O[C@@H]2O[C@H](CO)[C@@H](O)[C@H](O)[C@H]2O[C@H]2C[C@](C)(N)[C@H](O)[C@H](C)O2)Oc2ccc(cc2Cl)[C@H]1O [Vancomycin] | 2 | 2 | 2 | 2 | 2 | 2 | 2 | 2 | 1 | 1 | 2 | 2 | 2 | 2 | 2 | 2 | 2 | 2 | 4 | 4 | MIC ([11]; replicate 1): 2 µg/mL; MIC ([11]; replicate 2): 2 µg/mL |
